Laboratory results from patent US11066412B2, “Substituted pyrrolo[2,1-a]phthalazines and benzo[g]pyrrolo[2,1-a]phthalazines for the treatment of cancer” (Academia Sinica, priority 2017, dated 2021).
Like-named read-outs stand apart in the source and are kept apart here.

Tests used:
[1] = system: small cell lung cancer H526; experiment: in vitro cytotoxicity, PrestoBlue assay; assay type: cell-based, human; details: read-out: IC50 H526
[2] = system: colon cancer HCT-116; experiment: in vitro cytotoxicity, PrestoBlue assay; assay type: cell-based, human; details: Table 2
Method: (§1) All representative compounds of Formulae (I-A) and (I-B) were first evaluated for their in vitro cytotoxicity to human lymphoblastic leukemia cell line (CCRF-CEM) and its vinblastine-resistant sub-cell line (CCRF-CEM/VBL) (see Table 1).
(§2) After a 72-hr incubation in various concentrations of the newly synthesized compounds, the cytotoxic effects of them to all cell lines were determined by the PrestoBlue®(Invitrogen) assay using a microplate spectrophotometer. Briefly, at the end of treatment, an aliquot of PrestoBlue® solution was added and then cells were incubated at 37° C. for 1-2 hr. The absorbance at 570 and 600 nm was measured with a microplate reader. […] The ICso is defined by the concentration required to inhibit tumor cell growth by 50%. Data represent the mean±STDEV of three to six independent experiments for each compound.

[3] = system: vinblastine-resistant sub-cell line (CCRF-CEM/VBL); experiment: in vitro cytotoxicity, PrestoBlue assay; assay type: cell-based, human; details: for IC50: read-out: IC50 CEM/VBL; for resistance factor (IC50 CEM/VBL vs IC50 of the parent cell line): number in brackets
Method: as §1, §2

[4] = system: pancreatic cancer PacaS1; experiment: in vitro cytotoxicity, PrestoBlue assay; assay type: cell-based, human; details: Table 2
Method: as §1, §2

[5] = system: non-small cell lung cancer H460; experiment: in vitro cytotoxicity, PrestoBlue assay; assay type: cell-based, human; details: Table 2
Method: as §1, §2

[6] = system: human lymphoblastic leukemia cell line (CCRF-CEM); experiment: in vitro cytotoxicity, PrestoBlue assay; assay type: cell-based; details: read-out: IC50 CCRF-CEM
Method: as §1, §2

[7] = system: H211; experiment: in vitro cytotoxicity to SCLC cells; assay type: cell-based, human; details: Table 3
Method: as §2

[8] = system: H146; experiment: in vitro cytotoxicity to SCLC cells; assay type: cell-based, human; details: Table 3
Method: as §2

[9] = system: H1417; experiment: in vitro cytotoxicity to SCLC cells; assay type: cell-based, human; details: Table 3
Method: as §2

[10] = system: H82; experiment: in vitro cytotoxicity to SCLC cells; assay type: cell-based, human; details: Table 3
Method: as §2

[11] = system: pEGFP-N1 plasmid DNA; experiment: DNA cross-linking, alkaline agarose gel electrophoresis; assay type: biochemical; details: 1-20 μM, 37° C., 2 hrs; FIG. 1
Method: In the present example, BO-2590, BO-2577 (Formula I-A) and BO-2698, BO-2755, BO-2762 and BO-2768 (Formula I-B) were tested for their DNA crosslinking activity, in which the cross-linking was analyzed by alkaline agarose gel electrophoresis. In brief, purified pEGFP-N1 plasmid DNA (1,500 ng) was mixed with various concentrations (1-20 μM) of the tested compounds in 40 μL binding buffer (3 mM sodium chloride/1 mM sodium phosphate, pH 7.4, and 1 mM EDTA). The reaction mixture was incubated at 37° C. for 2 hrs. At the end of reaction, the plasmid DNA was linearized by digestion with BamHI and followed by precipitation with ethanol. The DNA pellets were dissolved and denatured in alkaline buffer (0.5 N NaOH-10mM EDTA). An aliquot of 20 μL of DNA solution (1,000 ng) was mixed with 4 μL of 6× alkaline loading dye and then electrophoretically resolved on a 0.8% alkaline agarose gel with NaOH-EDTA buffer at 4° C. The electrophoresis was carried out at 18V for 22 h. After staining the gels with an ethidium bromide solution, the DNA was visualized under UV light. Results are illustrated in FIG. 1.

[12] = 72-hr incubation, mean ± STDEV of three to six experiments
[13] = Homo sapiens, CCRF-CEM, footnote d: IC50 values in nM

Structure (SMILES) | IC50 [3, 12] [nM] | resistance factor (IC50 CEM/VBL vs IC50 of the parent cell line) [3] [×] | IC50 [6, 12] [nM] | further results
CCNC(=O)OCc1c(COC(=O)NCC)c2c3ccccc3c(N(C)C)nn2c1C [BO-2786] | 550 ± 60 | 0.75 | 730 ± 50 | IC50 ([1]; Table 2): 570 ± 90 nM; IC50 [2]: 2450 ± 650 nM; IC50 Paca SI [4]: 8010 ± 1400 nM; IC50 [5]: 3470 ± 470 nM
CCNC(=O)OCc1c(COC(=O)NCC)c2c3cc4ccccc4cc3c(N3CCC(N4CCCCC4)CC3)nn2c1C [BO-2793] | 104 ± 28 | 1.82 | 57 ± 4 | IC50 ([1]; Table 3): 10 ± 3 nM; IC50 [7]: 60 ± 20 nM; IC50 [8]: 310 ± 210 nM; IC50 [9]: 130 ± 90 nM; IC50 [10]: 90 ± 40 nM
Cc1c(CO)c(CO)c2c3ccccc3c(N3CCOCC3)nn12 [BO-2571, (3-Methyl-6-morpholinopyrrolo[2,1-α]phthalazine-1,2-diyl)dimethanol] | 560 ± 60 | 0.74 | 760 ± 30 | IC50 ([1]; Table 2): 100 ± 10 nM; IC50 [2]: 1670 ± 180 nM; IC50 Paca SI [4]: 2160 ± 90 nM; IC50 [5]: 2640 ± 520 nM
Cc1c(CO)c(CO)c2c3ccccc3c(N(C)C)nn12 [BO-2785] | 2940 ± 260 | 0.88 | 3330 ± 390 | –
Cc1c(CO)c(CO)c2c3cc4ccccc4cc3c(N3CCCC3)nn12 [BO-2762, (3-Methyl-6-(pyrrolidin-1-yl)benzo[g]pyrrolo[2,1-α]phthalazine-1,2-diyl)dimethanol] | 140 ± 20 | 0.74 | 190 ± 10 | IC50 ([1]; Table 2): 50 ± 10 nM; IC50 ([1]; Table 3): 30 ± 10 nM; formation of DNA interstrand crosslinks [11]: induced DNA interstrand crosslinks; IC50 [7]: 200 ± 120 nM; IC50 [8]: 1010 ± 240 nM; IC50 [9]: 600 ± 340 nM; IC50 [10]: 410 ± 150 nM; IC50 [2]: 930 ± 120 nM; IC50 Paca SI [4]: 1040 ± 80 nM; IC50 [5]: 780 ± 240 nM
Cc1c(COC(=O)NC(C)C)c(COC(=O)NC(C)C)c2c3ccccc3c(N3CCCCC3)nn12 [BO-2722] | 1730 ± 90 | 0.90 | 1920 ± 110 | –
Cc1c(COC(=O)NC(C)C)c(COC(=O)NC(C)C)c2c3ccccc3c(N3CCCC3)nn12 [BO-2717] | 3160 ± 180 | 0.77 | 4110 ± 150 | –
CCNC(=O)OCc1c(COC(=O)NCC)c2c3cc4ccccc4cc3c(N3CCOCC3)nn2c1C [BO-2756] | 320 ± 40 | 1.03 | 310 ± 20 | IC50 ([1]; Table 3): 150 ± 87 nM; IC50 [7]: 130 ± 100 nM; IC50 [8]: 1510 ± 830 nM; IC50 [9]: 810 ± 20 nM; IC50 [10]: 740 ± 390 nM
COc1ccc(-c2c(CO)c(CO)c3c4ccccc4c(N4CCOCC4)nn23)cc1 [BO-2629] | 5750 ± 620 | 0.86 | 6630 ± 1740 | IC50 ([1]; Table 2): 1950 ± 260 nM; IC50 [2]: 5200 ± 430 nM; IC50 Paca SI [4]: 36630 ± 1040 nM; IC50 [5]: 18700 ± 1810 nM
COc1cc([C@@H]2c3cc4c(cc3[C@@H](O[C@@H]3O[C@@H]5CO[C@@H](C)O[C@H]5[C@H](O)[C@H]3O)[C@H]3COC(=O)[C@H]23)OCO4)cc(OC)c1O [Etoposide, reference compound] | – | – | – | IC50 ([1]; Homo sapiens, NCI-H526, Table 3): 200 ± 260 nM; IC50 ([7]; Homo sapiens, NCI-H211): 70 ± 10 nM; IC50 ([8]; Homo sapiens, NCI-H146): 2910 ± 170 nM; IC50 ([9]; Homo sapiens, NCI-H1417): 4530 ± 3180 nM; IC50 ([10]; Homo sapiens, NCI-H82): 1080 ± 420 nM
CCNC(=O)OCc1c(COC(=O)NCC)c2c3ccccc3c(N3CCOCC3)nn2c1-c1ccc(OC)cc1 [BO-2630] | 7210 ± 250 | 1.18 | 6120 ± 880 | –
CCNC(=O)OCc1c(COC(=O)NCC)c2c3cc4ccccc4cc3c(N3CCCCC3)nn2c1C [BO-2757] | 1200 ± 140 | 1.26 | 950 ± 50 | IC50 ([1]; Table 3): 540 ± 180 nM; IC50 [7]: 1030 ± 250 nM; IC50 [8]: 4190 ± 700 nM; IC50 [9]: 3940 ± 110 nM; IC50 [10]: 1580 ± 10 nM
CCc1c(COC(=O)NC(C)C)c(COC(=O)NC(C)C)c2c3ccccc3c(N3CCOCC3)nn12 [BO-2626] | 1580 ± 200 | 0.43 | 3680 ± 250 | –
CC[C@]1(O)C[C@@H]2CN(CCc3c([nH]c4ccccc34)[C@@](C(=O)OC)(c3cc4c(cc3OC)N(C)[C@H]3[C@@](O)(C(=O)OC)[C@H](OC(C)=O)[C@]5(CC)C=CCN6CC[C@]43[C@@H]65)C2)C1 [Vinblastine, reference compound] | – | 278.3 | – | IC50 [3, 13]: 392 ± 44.8 nM; IC50 [6, 13]: 1.41 ± 0.1 nM
CCNC(=O)OCc1c(COC(=O)NCC)c2c3cc4ccccc4cc3c(N3CCCC3)nn2c1C [BO-2763, (3-Methyl-6-(pyrrolidin-1-yl)benzo[g]pyrrolo[2,1-α]phthalazine-1,2-diyl)-bis(methylene) bis(ethylcarbamate)] | 250 ± 60 | 0.59 | 420 ± 70 | IC50 ([1]; Table 3): 180 ± 60 nM; IC50 [7]: 680 ± 590 nM; IC50 [8]: 2160 ± 500 nM; IC50 [9]: 1150 ± 150 nM; IC50 [10]: 1580 ± 1370 nM
CCNC(=O)OCc1c(COC(=O)NCC)c2c3ccccc3c(N3CCCCC3)nn2c1C [BO-2721] | 1230 ± 200 | 0.96 | 1280 ± 90 | –
Cc1c(COC(=O)NC(C)C)c(COC(=O)NC(C)C)c2c3ccccc3c(N3CCOCC3)nn12 [BO-2574] | 960 ± 160 | 0.82 | 1170 ± 180 | –
COc1ccc(-c2c(COC(=O)NC(C)C)c(COC(=O)NC(C)C)c3c4ccccc4c(N4CCOCC4)nn23)cc1 [BO-2631] | 3070 ± 430 | 1.07 | 2850 ± 1520 | –
CCNC(=O)OCc1c(COC(=O)NCC)c2c3ccccc3c(N3CCOCC3)nn2c1C [BO-2573, (3-Methyl-6-morpholinopyrrolo[2,1-a]phthalazine-1,2-diyl)bis(methylene)bis(ethylcarbamate)] | 450 ± 30 | 0.65 | 690 ± 220 | IC50 ([1]; Table 2): 210 ± 30 nM; IC50 [2]: 1700 ± 210 nM; IC50 Paca SI [4]: 17230 ± 3480 nM; IC50 [5]: 2480 ± 730 nM
CCNC(=O)OCc1c(COC(=O)NCC)c2c3cc4ccccc4cc3c(N(C)C)nn2c1C [BO-2772, (6-(Dimethylamino)-3-methylbenzo[g]pyrrolo[2,1-α]phthalazine-1,2-diyl)-bis(methylene) bis(ethylcarbamate)] | 99 ± 6 | 0.71 | 138 ± 8 | IC50 ([1]; Table 3): 270 ± 310 nM; IC50 [7]: 320 ± 200 nM; IC50 [8]: 1670 ± 240 nM; IC50 [9]: 1010 ± 490 nM; IC50 [10]: 520 ± 160 nM
CCNC(=O)OCc1c(COC(=O)NCC)c2c3ccccc3c(N3CCOCC3)nn2c1CC [BO-2625] | 5110 ± 910 | 1.48 | 3440 ± 820 | –
Cc1c(COC(=O)NC(C)C)c(COC(=O)NC(C)C)c2c3ccccc3c(N(C)C)nn12 [BO-2787] | 970 ± 170 | 0.63 | 1540 ± 220 | –
N.N.O=C([O-])C1(C(=O)[O-])CCC1.[Pt+2] [Carboplatin, reference compound] | – | – | – | IC50 ([1]; Table 3): 6430 ± 140 nM; IC50 [7]: 13900 ± 1560 nM; IC50 [8]: 37100 ± 6380 nM; IC50 [9]: 8640 ± 1930 nM
Cc1c(CO)c(CO)c2c3ccccc3c(N3CCCCC3)nn12 [BO-2720] | 1330 ± 130 | 1.28 | 1040 ± 120 | –
